Data: patent EP1953147A1, “HETEROCYCLIC COMPOUND AND MEDICINAL APPLICATION THEREOF” (priority 2005, dated 2007)
Counter-ions that a name gives are not always drawn.

system: ΔG/SEAP/HCV E1E2; test: Effect of test substance on cell infection with HCV pseudotype virus (SEAP reporter assay in HepG2 cells); type: cell-based; conditions: Hepatitis C virus

With `COc1cc(OC)cc(-c2nn(-c3cc(CN(C)C)ccc3C(F)(F)F)c(=O)c3c2CCC3)c1` [Example 160, 4-(3,5-dimethoxy-phenyl)-2-(5-dimethylaminomethyl-2-trifluoromethyl-phenyl)-2,5,6,7-tetrahydro-cyclopenta[d]pyridazin-1-one hydrochloride] as the compound, how does the IC50 read?
The IC50 was 100 to 10000 nM.

`COc1ccccc1-c1nn(-c2cc(N3CC[C@H](O)C3)ccc2C(F)(F)F)c(=O)c2c1CCC2` [Example 109, 2-[5-((S)-3-hydroxy-pyrrolidin-1-yl)-2-trifluoromethyl-phenyl]-4-(2-methoxy-phenyl)-2,5,6,7-tetrahydro-cyclopenta[d]pyridazin-1-one] was tested. Which IC50 did it give?
Its IC50 is 100 to 10000 nM.

Which IC50 does the source give for `Cc1ccc(-c2nn(-c3cc(N4CC[C@H](O)C4)ccc3C(F)(F)F)c(=O)c3c2CCC3)cc1` [Example 114, 2-[5-((S)-3-hydroxy-pyrrolidin-1-yl)-2-trifluoromethyl-phenyl]-4-p-tolyl-2,5,6,7-tetrahydro-cyclopenta[d]pyridazin-1-one] here?
Its IC50 is less than 100 nM.

`COc1cc(OC)cc(-c2nn(-c3cc(F)ccc3C(F)(F)F)c(=O)c3c2CCC3)c1` [Example 1-12, 4-(3,5-dimethoxy-phenyl)-2-(5-fluoro-2-trifluoromethylphenyl)-2,5,6,7-tetrahydro-cyclopenta[d]pyridazin-1-one] was tested. Which IC50 did it give?
The IC50 was 100 to 10000 nM.

`O=c1c2c(c(C3=CCCC3)nn1-c1cc(N3CC[C@H](O)C3)ccc1C(F)(F)F)CCC2` [Example 1-18, 4-(cyclopent-1-enyl)-2-[5-((S)-3-hydroxy-pyrrolidin-1-yl)-2-trifluoromethyl-phenyl]-2,5,6,7-tetrahydro-cyclopenta[d]pyridazin-1-one] was tested. Which IC50 did it give?
Its IC50 is 100 to 10000 nM.

Which IC50 does the source give for `COC(=O)CNc1ccc(C(F)(F)F)c(-n2nc(-c3cc(OC)cc(OC)c3)c3c(c2=O)CCC3)c1` [Example 126, {3-[4-(3,5-dimethoxy-phenyl)-1-oxo-1,5,6,7-tetrahydro-cyclopenta[d]pyridazin-2-yl]-4-trifluoromethyl-phenylamino}-acetic acid methyl ester] here?
Its IC50 is less than 100 nM.

How did the IC50 turn out when `Cc1ccccc1-c1nn(-c2cc(N3CC[C@H](O)C3)ccc2C(F)(F)F)c(=O)c2c1CCC2` [Example 133, 2-[5-((S)-3-hydroxy-pyrrolidin-1-yl)-2-trifluoromethyl-phenyl]-4-o-tolyl-2,5,6,7-tetrahydro-cyclopenta[d]pyridazin-1-one] was run?
Its IC50 is 100 to 10000 nM.

How did the IC50 turn out when `O=c1c2c(c(C3=CCCCC3)nn1-c1cc(N3CC[C@H](O)C3)ccc1C(F)(F)F)CCC2` [Example 113, 4-cyclohex-1-enyl-2-[5-((S)-3-hydroxy-pyrrolidin-1-yl)-2-trifluoromethyl-phenyl]-2,5,6,7-tetrahydro-cyclopenta[d]pyridazin-1-one] was run?
Its IC50 is 100 to 10000 nM.

Which IC50 does the source give for `COC(=O)CCNc1ccc(C(F)(F)F)c(-n2nc(-c3cc(OC)cc(OC)c3)c3c(c2=O)NCC3)c1` [Example 47, 3-{3-[4-(3,5-dimethoxy-phenyl)-7-oxo-1,2,3,7-tetrahydro-pyrrolo[2,3-d]pyridazin-6-yl]-4-trifluoromethyl-phenylamino}-propionic acid methyl ester] here?
Its IC50 is less than 100 nM.

How did the IC50 turn out when `COc1cc(OC)cc(-c2nn(-c3cc(NC(=O)CO)ccc3C(F)(F)F)c(=O)c3c2CCC3)c1` [Example 83, N-{3-[4-(3,5-dimethoxy-phenyl)-1-oxo-1,5,6,7-tetrahydro-cyclopenta[d]pyridazin-2-yl]-4-trifluoromethyl-phenyl}-2-hydroxy-acetamide] was run?
The IC50 was less than 100 nM.

For `O=c1c2c(c(-c3ccc(Cl)cc3)nn1-c1cc(N3CC[C@H](O)C3)ccc1C(F)(F)F)CCC2` [Example 78, 4-(4-chloro-phenyl)-2-[5-((S)-3-hydroxy-pyrrolidin-1-yl)-2-trifluoromethyl-phenyl]-2,5,6,7-tetrahydro-cyclopenta[d]pyridazin-1-one], which IC50 is on record?
The IC50 was less than 100 nM.

`CCC(=O)Nc1ccc(C(F)(F)F)c(-n2nc(-c3cc(OC)cc(OC)c3)c3c(c2=O)CCC3)c1` [Example 57, N-{3-[4-(3,5-dimethoxy-phenyl)-1-oxo-1,5,6,7-tetrahydro-cyclopenta[d]pyridazin-2-yl]-4-trifluoromethyl-phenyl}-propionamide] was tested. Which IC50 did it give?
The IC50 was less than 100 nM.

With `COc1cc(C)cc(-c2nn(-c3cc(N4CC[C@@H](O)C4)ccc3C(F)(F)F)c(=O)c3c2CCN3)c1` [Example 22, 6-[5-((R)-3-hydroxy-pyrrolidin-1-yl)-2-trifluoromethyl-phenyl]-4-(3-methoxy-5-methyl-phenyl)-1,2,3,6-tetrahydro-pyrrolo[2,3-d]pyridazin-7-one] as the compound, how does the IC50 read?
Its IC50 is less than 100 nM.

How did the IC50 turn out when `CCc1ccc(C(F)(F)F)c(-n2nc(-c3cc(OC)cc(OC)c3)c3c(c2=O)CCC3)c1` [Example 89, 4-(3,5-dimethoxy-phenyl)-2-(5-ethyl-2-trifluoromethyl-phenyl)-2,5,6,7-tetrahydro-cyclopenta[d]pyridazin-1-one] was run?
Its IC50 is less than 100 nM.

For `COc1cc(OC)cc(-c2nn(-c3cc(NCCc4ccccc4)ccc3C(F)(F)F)c(=O)c3c2CCC3)c1` [Example 136, 4-(3,5-dimethoxy-phenyl)-2-(5-phenethylamino-2-trifluoromethyl-phenyl)-2,5,6,7-tetrahydro-cyclopenta[d]pyridazin-1-one], which IC50 is on record?
The IC50 was less than 100 nM.

`COc1cc(OC)cc(-c2nn(-c3cc(NCCC4CC4)ccc3C(F)(F)F)c(=O)c3c2CCC3)c1` [Example 147, 2-[5-(2-cyclopropyl-ethylamino)-2-trifluoromethyl-phenyl]-4-(3,5-dimethoxy-phenyl)-2,5,6,7-tetrahydro-cyclopenta[d]pyridazin-1-one] was tested. Which IC50 did it give?
Its IC50 is less than 100 nM.

For `COc1cc(OC)cc(-c2nn(-c3cc(NCCC(=O)OC(C)(C)C)ccc3C(F)(F)F)c(=O)c3c2CCC3)c1` [Example 115, 3-{3-[4-(3,5-dimethoxy-phenyl)-1-oxo-1,5,6,7-tetrahydro-cyclopenta[d]pyridazin-2-yl]-4-trifluoromethyl-phenylamino}-propionic acid tert-butyl ester], which IC50 is on record?
Its IC50 is less than 100 nM.

How did the IC50 turn out when `O=c1c2c(c(-c3ccccc3Cl)nn1-c1cc(N3CC[C@H](O)C3)ccc1C(F)(F)F)CCC2` [Example 96, 4-(2-chloro-phenyl)-2-[5-((S)-3-hydroxy-pyrrolidin-1-yl)-2-trifluoromethyl-phenyl]-2,5,6,7-tetrahydro-cyclopenta[d]pyridazin-1-one] was run?
The IC50 was 100 to 10000 nM.

How did the IC50 turn out when `COc1cc(OC)cc(-c2nn(-c3cc(-c4cccnn4)ccc3C(F)(F)F)c(=O)c3c2CCN3)c1` [Example 17, 4-(3,5-dimethoxy-phenyl)-6-(5-pyridazin-3-yl-2-trifluoromethyl-phenyl)-1,2,3,6-tetrahydro-pyrrolo[2,3-d]pyridazin-7-one] was run?
Its IC50 is less than 100 nM.

`COc1cc(OC)cc(-c2nn(-c3cc(N(C)CCO)ccc3C(F)(F)F)c(=O)c3c2CCC3)c1` [Example 92, 4-(3,5-dimethoxy-phenyl)-2-{5-[(2-hydroxy-ethyl)-methyl-amino]-2-trifluoromethyl-phenyl}-2,5,6,7-tetrahydro-cyclopenta[d]pyridazin-1-one] was tested. Which IC50 did it give?
The IC50 was less than 100 nM.

For `CN(C)c1cccc(-c2nn(-c3cc(N4CC[C@H](O)C4)ccc3C(F)(F)F)c(=O)c3c2CCC3)c1` [Example 85, 4-(3-dimethylamino-phenyl)-2-[5-((S)-3-hydroxy-pyrrolidin-1-yl)-2-trifluoromethyl-phenyl]-2,5,6,7-tetrahydro-cyclopenta[d]pyridazin-1-one], which IC50 is on record?
The IC50 was less than 100 nM.

Which IC50 does the source give for `COc1cc(OC)cc(-c2nn(-c3cc(N4CC[C@H](O)C4)ccc3C(F)(F)F)c(=O)c3c2SCC3)c1` [Example 1-37, 7-(3,5-dimethoxy-phenyl)-5-[5-((S)-3-hydroxy-pyrrolidin-1-yl)-2-trifluoromethyl-phenyl]-3,5-dihydro-2H-thieno[2,3-d]pyridazin-4-one] here?
The IC50 was less than 100 nM.

`CNC(=O)c1ccc(C(F)(F)F)c(-n2nc(-c3cc(OC)cc(OC)c3)c3c(c2=O)CCC3)c1` [Example 1-11, 3-[4-(3,5-dimethoxy-phenyl)-1-oxo-1,5,6,7-tetrahydro-cyclopenta[d]pyridazin-2-yl]-N-methyl-4-trifluoromethyl-benzamide] was tested. Which IC50 did it give?
Its IC50 is less than 100 nM.

How did the IC50 turn out when `COc1cc(OC)cc(-c2nn(-c3cc(NCCNC(=O)OC(C)(C)C)ccc3C(F)(F)F)c(=O)c3c2CCC3)c1` [Example 118, (2-{3-[4-(3,5-dimethoxy-phenyl)-1-oxo-1,5,6,7-tetrahydro-cyclopenta[d]pyridazin-2-yl]-4-trifluoromethyl-phenylamino}-ethyl)-carbamic acid tert-butyl ester] was run?
Its IC50 is less than 100 nM.

Which IC50 does the source give for `COc1cc(OC)cc(-c2nn(-c3cc(C)ccc3C(F)(F)F)c(=O)c3c2CCC3)c1` [Example 88, 4-(3,5-dimethoxy-phenyl)-2-(5-methyl-2-trifluoromethyl-phenyl)-2,5,6,7-tetrahydro-cyclopenta[d]pyridazin-1-one] here?
Its IC50 is less than 100 nM.

`O=c1c2c(c(-c3cccs3)nn1-c1cc(N3CC[C@H](O)C3)ccc1C(F)(F)F)CCC2` [Example 1-17, 2-[5-((S)-3-hydroxy-pyrrolidin-1-yl)-2-trifluoromethylphenyl]-4-(thiophen-2-yl)-2,5,6,7-tetrahydro-cyclopenta[d]pyridazin-1-one] was tested. Which IC50 did it give?
The IC50 was less than 100 nM.

How did the IC50 turn out when `COc1cc(OC)cc(-c2nn(-c3cc(N4CC[C@H](O)C4)ccc3C(F)(F)F)c(=O)c3c2CCN3CC(=O)NCCCCCCNC(C)=O)c1` [Example 40, N-(6-acetylamino-hexyl)-2-{4-(3,5-dimethoxy-phenyl)-6-[5-((S)-3-hydroxy-pyrrolidin-1-yl)-2-trifluoromethyl-phenyl]-7-oxo-2,3,6,7-tetrahydro-pyrrolo[2,3-d]pyridazin-1-yl}-acetamide] was run?
Its IC50 is less than 100 nM.

`COc1cc(C)cc(-c2nn(-c3cc(-c4cccnn4)ccc3C(F)(F)F)c(=O)c3c2CCC3)c1` [Example 1-4, 4-(3-methoxy-5-methyl-phenyl)-2-[5-(pyridazin-3-yl)-2-trifluoromethyl-phenyl]-2,5,6,7-tetrahydro-cyclopenta[d]pyridazin-1-one] was tested. Which IC50 did it give?
Its IC50 is less than 100 nM.

`COc1cc(OC)cc(-c2nn(-c3cc(NC4CCCC4)ccc3C(F)(F)F)c(=O)c3c2CCC3)c1` [Example 146, 2-(5-cyclopentylamino-2-trifluoromethyl-phenyl)-4-(3,5-dimethoxy-phenyl)-2,5,6,7-tetrahydro-cyclopenta[d]pyridazin-1-one] was tested. Which IC50 did it give?
The IC50 was less than 100 nM.

`COc1cc(OC)cc(-c2nn(-c3cc(CCCO)ccc3C(F)(F)F)c(=O)c3c2CCC3)c1` [Example 121, 4-(3,5-dimethoxy-phenyl)-2-[5-(3-hydroxy-propyl)-2-trifluoromethyl-phenyl]-2,5,6,7-tetrahydro-cyclopenta[d]pyridazin-1-one] was tested. Which IC50 did it give?
The IC50 was less than 100 nM.
